# Assay results taken from patent US12576048B2, “Anti-cancer activity of adamantane derivatives” (The Regents of the University of California, priority 2018, dated 2026).
# Legend:
# [1] = system: B16-OVA melanoma tumor line; assay: MHC Class I expression in B16-OVA by flow cytometry (Example 2); format: cell-based, murine; conditions: 24 hours at indicated concentrations; FIG. 15
# [2] = system: AT-84 E7 squamous cell carcinoma; assay: MTT proliferation assay, AT-84-E7 (Example 2); format: cell-based, murine; conditions: 48 hours; FIG. 16B
# [3] = system: CAL-27 squamous cell carcinoma cell line; assay: MTT proliferation assay, CAL-27; format: cell-based, human
# [4] = system: MOSCC3 squamous cell carcinoma; assay: MTT proliferation assay, MOSCC3 (Example 2); format: cell-based, murine; conditions: 48 hours; FIG. 16C
# B16-OVA melanoma = assay: MTT proliferation assay, B16-OVA (Example 2); format: cell-based, murine; conditions: 48 hours; FIG. 16A
# Stathmin = Stathmin mRNA expression by RT-qPCR; format: cell-based; conditions: 24 hours
# Description: FIGS. 11A and 11B are plots showing Stathmin mRNA expression, which was analyzed 24 hours following treatment with rimantadine in AT-84-E7 cells and B16-OVA cells, respectively.
# (§1) Total RNA were extracted using TRIzol Reagent (Invitrogen) and reverse transcribed with qScript cDNA Synthesis Kit (Quanta BioSciences, Beverly, MA) according to the manufacturer's instructions. Quantitative PCR analysis were conducted by using KAPA SYBR […] FAST (KAPA Biosystems, Wilmington, MA) on the 7900HT Fast Real-Time PCR System (Applied Biosystems, Foster City, CA).
# [5] = system: murine and human cell lines engineered to express HPV16 E5; format: cell-based; conditions: 24 hours; FIG. 14
# [6] = system: CAL-33 squamous cell carcinoma cell line; assay: BrdU cell cycle analysis, CAL-33; format: cell-based, human; conditions: rimantadine alone; FIG. 13
# Description: (§2) FIG. 13 has plots showing the effect of rimantadine on human HNSCC lines as labeled. BrdU cell cycle analysis (upper) and MTT proliferation assay (lower).
# (§3) Cell cycle progression was analyzed on the basis of BrdU incorporation following […] cell staining with BrdU-APC and 7-AAD using BD Pharmingen BrdU Flow Kit. (BD, Franklin Lakes, NJ) according to the manufacture's protocol. Cells were analyzed using flow cytometry. Cell proliferation was assessed by using MTT [3-(4,5-dimethylthiazol-2-yl)-2,5-diphenyltetrazolium bromide]. First, cells were seeded in 96-well plate and cultured for 2-3 days. Next, culture media was replaced with fresh media containing 0.5 mg/ml of MTT (Sigma) and the plates were incubated for 4 hours at 37° C. Then, purple formazan crystals were dissolved in lysis buffer (4 mM HCl and 0.1% NP-40 in isopropanol) and the absorbance was recorded on a TECAN infinite M200 microplate reader (Tecan, Männedorf, Switzerland) at a wavelength of 570 nm with absorbance at 650 nm as reference.
# Tau = Tau mRNA expression by RT-qPCR; format: cell-based; conditions: 24 hours; FIGS. 12A and B
# Description: FIGS. 12A and 12B are plots showing Tau mRNA expression, which was analyzed 24 hours following treatment with rimantadine.
# as §1
# 4T1 tumor cells = assay: Tumor volume in mice inoculated with 4T1 tumor cells; format: in vivo; conditions: 10 mg/kg IP once daily, 7 injections starting on day 6; FIG. 1C
# Description: (§4) FIGS. 1A-1E are plots showing the effects of rimantadine or PEGylated rimantidine on tumor volume in different cancer models.
# (§5) Mice were injected subcutaneously with 1.0 to 5.0×10^5 AT-84-E7, 1.5×10^5 B16-OVA, or 5.0×10^5 4T1 cells resuspended in 100 μl of PBS in the right flank. For orthotopic models, 1.0×10^5 AT-84-E7 or 1.0×10^6 4MOSC1 in 30 μl of PBS were injected into tongue. Tumor diameter was measured every 2 to 3 days with an electronic caliper and reported as volume using the formula; tumor volume (mm3)=(length×width2)/2. Once tumors become palpable, mice were treated with 200 μg of anti-PD-L1 antibody (BioXcell, West Lebanon, NH) via IP injection every 3 days for a total of three or four injections per mouse, or mice were treated with 10 mg/kg body weight of rimantadine (Sigma, St. Louis, MO) via IP injection daily for 7 days. For adoptive transfer experiments, first, single-cell suspension of spleen from OT-1 mice were cultured in media containing 10 ng/ml OVA SIINFEKL peptide (InvivoGen, San Diego, CA) and 2 ng/ml recombinant IL-2 (PeproTech, Rocky Hill, NJ) […], and then 4.0×10^6 cells were intravenously injected into B16-OVA-bearing mice.
# [7] = system: AT-84-E7 and B16-OVA models; assay: Cell proliferation assay (MTT), FIG. 9; format: cell-based; conditions: 48 hours
# Description: FIG. 9 has plots showing the cell proliferation assay (MTT), which was analyzed 48 hours following treatment with rimantadine.
# as §3
# T cells = assay: T-cell proliferation assay using CFSE-labeled T-cells; format: cell-based; conditions: FIGS. 10A and 10B
# Excerpt: FIGS. 10A and 10B are plots showing T-cell proliferation assay using CFSE-labeled T-cells simulated to proliferate in the presence or absence of rimantadine.
# [8] = system: CAL-33 squamous cell carcinoma cell line; assay: MTT proliferation assay, CAL-33; format: cell-based, human; conditions: rimantadine alone; FIG. 13
# Description: as §2, §3
# B16-OVA = assay: BrdU cell cycle analysis, B16-OVA; format: cell-based, murine; conditions: 24 hours; FIG. 8
# Description: (§6) FIG. 8 has plots showing the BrdU cell cycle analyzed for 24 hours following treatment with rimantadine,
# as §3
# 4MOSC1 tumor cells = assay: Tumor volume in mice inoculated with 4MOSC1 tumor cells (orthotopic HNSCC model); format: in vivo; conditions: 10 mg/kg IP once daily, 7 injections once tumors palpable; FIG. 1D
# Description: as §4, §5
# [9] = system: SCC-47 squamous cell carcinoma cell line; assay: MTT proliferation assay, SCC-47; format: cell-based, human; conditions: rimantadine alone; FIG. 13
# Description: as §2, §3
# [10] = system: B16-OVA cells co-cultured with B3Z cells; assay: B3Z activation assay; format: cell-based; conditions: 100 μM rimantadine 24 hours, then 24 hours co-culture; FIG. 5
# Description: FIG. 5 is a plot showing B3Z activation after rimantadine treatment (48 hours).
# B16-OVA cells were seeded into 96-well plate and treated with 100 μM rimantadine for 24 hours, prior to addition of B3Z cells. After 24 hours of co-culture, medium was removed and 100 μl of lysis buffer [0.155 mM chlorophenol red β-D-galactopyranoside (CPRG) (Roche), 0.125% Nonidet P-40 Alternative (EMD-Calbiochem), and 9 mM MgCl2 (Sigma) in PBS] was added. After incubation for 4 hours at 37° C., the absorbance at 570 nm was determined on a TECAN infinite M200 microplate reader.
# RAW264.7 cell line = conditions: 48 hours after treatment
# Description: FIGS. 7A and 7B are plots showing cell surface expression of MHC I (H-2Kd) and MHC II (I-A/I-E), respectively, on rimantadine-treated RAW264.7 48 hours after treatment. Data are shown as mean±S.E.M. Statistics were done using an unpaired t-test.
# After obtaining single-cell suspensions, each sample was incubated with an Fc blocking reagent (anti-CD16/32 antibody; BioLegend, San Diego, CA). Following Fc blockade, cells were stained with fluorescent-labeled antibodies [BioLegend, BD Bioscience (San Jose, CA), or eBiosciences (Thermo Fisher Scientific, Waltham, MA)]. LIVE/DEAD Fixable Cell Staining Kit (Invitrogen) was used for viability staining. For intracellular staining, cells were processed with Foxp3/Transcription Factor Fixation/Permeabilization Concentrate and Diluent (Invitrogen). Cells were analyzed using a BD FACS Aria II or LSR II flow cytometer (BD). Data was analyzed on FlowJo (FlowJo, LLC, Ashland, OR). For each antibody, the following clones were used: CD45.2 (104), CD3e (145-2C11), CD4 (RM4-5), CD8a (5H10), CD25 (3C7, PC61), CD44 (IM7), CD62L (MEL-14), IFN-γ (XMG1.2), Foxp3 (MF23), H-2Kb (AF6-88.5), H-2Kk (36-7-5), H-2Kd (SF1-1.1), H-2Kb/[sequence] (eBio25-D1.16), I-A/I-E (2G9), CD49b (DX5), CD11b (M1/70), FLAG (L5), CD31 (MEC13.3), NK-T/NK Cell Antigen (U5A2-13), CD102 (3C4 (MIC2/4)), CD62P (RMP-1), CD105 (MJ7/18), CD106 (429 (MVCAM.A)), and CD162 (2PH1).
# [11] = system: SCC-47 squamous cell carcinoma cell line; assay: BrdU cell cycle analysis, SCC-47; format: cell-based, human; conditions: rimantadine alone; FIG. 13
# Description: as §2, §3
# [12] = system: CAL-27 squamous cell carcinoma cell line; assay: BrdU cell cycle analysis, CAL-27; format: cell-based, human; conditions: rimantadine alone; FIG. 13
# Description: as §2, §3
# AT84-E7/E5 tumor cells = assay: Tumor volume in mice inoculated with AT84-E7/E5 tumor cells; format: in vivo; conditions: 10 mg/kg IP once daily, 7 injections starting on day 8; FIG. 1A
# Description: as §4, §5
# [13] = system: multiple cell lines (AT-84-E7, B16-OVA, 4T1, B16, MC38); conditions: rimantadine 100 μM, 48 hours or 24 hours; FIGS. 3A-3E, 4A-D
# Description: FIGS. 3A-3E are plots showing MHC I expression or antigen-presentation (H-2Kb/[sequence]) as analyzed by flow cytometry after rimantadine treatment (100 μM, 48 hours). FIG. 3A is a plot showing MHC I expression for the AT-84-E7 model. FIG. 3B is a plot showing MHC I expression for the B16-OVA model. FIG. 3C is a plot showing antigen-presentation (H-2Kb/[sequence]) for the B16-OVA model. FIG. 3D is a plot showing MHC I expression for the 4T1 model.
# FIGS. 4A-4D are plots showing MHC expression in tumor cells. FIGS. 4A and 4B show MHC I expression analyzed by flow cytometry 48 hours after rimantadine treatment for B16 and MC38 cells, respectively. FIGS. 4C and 4D are plots showing expression of MHC I and antigen presentation (H-2Kb/[sequence]), respectively, 24 hours after rimantadine treatment in B16-OVA cells.
# After obtaining single-cell suspensions, each sample was incubated with an Fc blocking reagent (anti-CD16/32 antibody; BioLegend, San Diego, CA). Following Fc blockade, cells were stained with fluorescent-labeled antibodies [BioLegend, BD Bioscience (San Jose, CA), or eBiosciences (Thermo Fisher Scientific, Waltham, MA)]. LIVE/DEAD Fixable Cell Staining Kit (Invitrogen) was used for viability staining. […] Cells were analyzed using a BD FACS Aria II or LSR II flow cytometer (BD). Data was analyzed on FlowJo (FlowJo, LLC, Ashland, OR). […]
# AT-84-E7 = assay: BrdU cell cycle analysis, AT-84-E7; format: cell-based, murine; conditions: 24 hours; FIG. 8
# Description: as §6, §3
# [14] = system: AT-84-E7 tumors which didn't express E5; assay: Tumor volume in mice inoculated with AT-84-E7 cells not expressing E5 (empty vector); format: in vivo; conditions: rimantadine for one week; FIG. 2A vs 2B
# Description: FIGS. 2A and 2B are plots showing the effects of rimantadine on tumor.
# as §5
# B16-OVA tumor cells = assay: Tumor volume in mice inoculated with B16-OVA tumor cells; format: in vivo; conditions: 10 mg/kg IP once daily, 7 injections starting on day 10; FIG. 1B, 1E
# Description: as §4, §5
smiles,measurement,setting,value
CC12CC3CC(C)(C1)CC(N)(C3)C2 [memantine],MHC Class I Expression,[1],upregulated
same,proliferation (MTT),[2],inhibit proliferation
same,proliferation (MTT),"[3]; 48 hours, FIG. 17A",inhibited proliferation
same,proliferation (MTT),"[3]; 72 hours, FIG. 17B",inhibited proliferation
same,proliferation (MTT),[4],inhibit proliferation
same,proliferation (MTT),B16-OVA melanoma,inhibit proliferation
CC(N)C12CC3CC(CC(C3)C1)C2 (centres unmarked) [rimantadine],Stathmin mRNA expression,"Stathmin; AT-84-E7 cells, FIG. 11A",significant decreases
same,Stathmin mRNA expression,"Stathmin; B16-OVA cells, FIG. 11B",significant decreases
same,cell cycle arrest (BrdU),[5],induced cell cycle arrest
same,cell cycle arrest (BrdU),[6],Significant cell cycle arrest
same,Tau mRNA expression,Tau,Decreases
same,tumor sizes compared to control groups,4T1 tumor cells,statistically significant decreases in tumor sizes
same,cell proliferation (MTT),[7],Suppression of cell proliferation
same,proliferation of T cells,T cells,no significant effect
same,proliferation (MTT),[8],decreased proliferation
same,cell surface expression of MHC I,E5-positive AT-84-E7,restored
same,MHC Class I Expression,[1],upregulated
same,GO/G1 cell cycle arrest,B16-OVA,significant increases
same,S phase,B16-OVA,significant decreases
same,anti-tumor activity (tumor volume),4MOSC1 tumor cells,significant anti-tumor activity
same,proliferation (MTT),[9],decreased proliferation
same,increase in recognition of model tumor antigen by B3Z cells,[10],3 fold
same,MHC class I surface expression,"RAW264.7 cell line; H-2Kd, FIG. 7A",significant increases
same,MHC class II surface expression,"RAW264.7 cell line; I-A/I-E, FIG. 7B",significant increases
same,cell cycle arrest (BrdU),[11],Significant cell cycle arrest
same,proliferation (MTT),[2],inhibit proliferation
same,cell cycle arrest (BrdU),[12],Significant cell cycle arrest
same,tumor size compared to control groups,AT84-E7/E5 tumor cells,statistically significant decreases in tumor size
same,proliferation (MTT),"[3]; 48 hours, FIG. 17A",inhibited proliferation
same,proliferation (MTT),"[3]; 72 hours, FIG. 17B",inhibited proliferation
same,proliferation (MTT),"[3]; rimantadine alone, FIG. 13",decreased proliferation
same,proliferation (MTT),[4],inhibit proliferation
same,surface expression of MHC,[13],Significant increases
same,GO/G1 cell cycle arrest,AT-84-E7,significant increases
same,S phase,AT-84-E7,significant decreases
same,anti-tumor effect (tumor volume) relative to E5-expressing tumors,[14],decreased
same,tumor sizes compared to control groups,B16-OVA tumor cells,statistically significant decreases in tumor sizes
same,proliferation (MTT),B16-OVA melanoma,inhibit proliferation
